From ChEMBL document CHEMBL1142908, “Selective L-nitroargininylaminopyrrolidine and L-nitroargininylaminopiperidine neuronal nitric oxide synthase inhibitors” (Bioorg Med Chem, 2007)
Residues, ends and D or L forms follow the SMILES beside them.

How the values were obtained:
[1] = target: T1, Nitric oxide synthase, inducible (Mus musculus, UniProt P29477); experiment: Inhibition of mouse recombinant iNOS expressed in Escherichia coli assessed as nitric oxide production by hemoglobin capture assay
T1 sequence (P29477 whole entry): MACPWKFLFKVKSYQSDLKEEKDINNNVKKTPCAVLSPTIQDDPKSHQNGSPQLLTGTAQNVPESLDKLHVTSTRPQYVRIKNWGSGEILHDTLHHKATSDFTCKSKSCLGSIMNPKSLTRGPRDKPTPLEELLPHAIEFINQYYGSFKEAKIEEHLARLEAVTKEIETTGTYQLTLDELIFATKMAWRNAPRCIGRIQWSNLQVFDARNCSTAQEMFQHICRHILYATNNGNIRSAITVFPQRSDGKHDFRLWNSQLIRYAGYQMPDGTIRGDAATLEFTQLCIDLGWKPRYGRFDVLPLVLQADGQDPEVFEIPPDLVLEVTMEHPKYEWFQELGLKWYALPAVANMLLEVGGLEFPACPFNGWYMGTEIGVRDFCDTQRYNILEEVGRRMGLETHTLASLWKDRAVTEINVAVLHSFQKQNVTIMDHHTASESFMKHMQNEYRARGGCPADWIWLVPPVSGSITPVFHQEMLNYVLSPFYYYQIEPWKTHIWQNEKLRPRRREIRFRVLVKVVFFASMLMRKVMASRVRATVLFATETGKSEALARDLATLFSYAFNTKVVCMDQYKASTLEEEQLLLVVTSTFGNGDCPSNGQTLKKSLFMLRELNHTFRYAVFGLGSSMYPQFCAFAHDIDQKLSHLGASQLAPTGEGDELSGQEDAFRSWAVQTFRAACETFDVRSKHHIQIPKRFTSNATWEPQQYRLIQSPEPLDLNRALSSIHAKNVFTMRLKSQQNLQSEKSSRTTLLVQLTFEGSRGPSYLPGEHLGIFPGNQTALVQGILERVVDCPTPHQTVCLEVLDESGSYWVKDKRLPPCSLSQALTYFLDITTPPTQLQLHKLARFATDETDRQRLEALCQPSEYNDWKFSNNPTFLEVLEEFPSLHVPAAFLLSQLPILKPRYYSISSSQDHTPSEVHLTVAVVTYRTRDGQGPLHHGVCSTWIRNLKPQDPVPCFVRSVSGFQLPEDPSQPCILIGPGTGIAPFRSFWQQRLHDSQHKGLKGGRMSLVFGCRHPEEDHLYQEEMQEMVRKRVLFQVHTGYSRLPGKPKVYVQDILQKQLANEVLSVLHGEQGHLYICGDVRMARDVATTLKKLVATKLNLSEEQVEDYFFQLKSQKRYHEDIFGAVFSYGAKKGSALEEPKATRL

Nitric oxide synthase 3 = target: T2, Nitric oxide synthase 3 (Bos taurus, UniProt P29473); experiment: Inhibition of bovine recombinant eNOS expressed in Escherichia coli assessed as nitric oxide production by hemoglobin capture assay
T2 sequence (P29473 whole entry): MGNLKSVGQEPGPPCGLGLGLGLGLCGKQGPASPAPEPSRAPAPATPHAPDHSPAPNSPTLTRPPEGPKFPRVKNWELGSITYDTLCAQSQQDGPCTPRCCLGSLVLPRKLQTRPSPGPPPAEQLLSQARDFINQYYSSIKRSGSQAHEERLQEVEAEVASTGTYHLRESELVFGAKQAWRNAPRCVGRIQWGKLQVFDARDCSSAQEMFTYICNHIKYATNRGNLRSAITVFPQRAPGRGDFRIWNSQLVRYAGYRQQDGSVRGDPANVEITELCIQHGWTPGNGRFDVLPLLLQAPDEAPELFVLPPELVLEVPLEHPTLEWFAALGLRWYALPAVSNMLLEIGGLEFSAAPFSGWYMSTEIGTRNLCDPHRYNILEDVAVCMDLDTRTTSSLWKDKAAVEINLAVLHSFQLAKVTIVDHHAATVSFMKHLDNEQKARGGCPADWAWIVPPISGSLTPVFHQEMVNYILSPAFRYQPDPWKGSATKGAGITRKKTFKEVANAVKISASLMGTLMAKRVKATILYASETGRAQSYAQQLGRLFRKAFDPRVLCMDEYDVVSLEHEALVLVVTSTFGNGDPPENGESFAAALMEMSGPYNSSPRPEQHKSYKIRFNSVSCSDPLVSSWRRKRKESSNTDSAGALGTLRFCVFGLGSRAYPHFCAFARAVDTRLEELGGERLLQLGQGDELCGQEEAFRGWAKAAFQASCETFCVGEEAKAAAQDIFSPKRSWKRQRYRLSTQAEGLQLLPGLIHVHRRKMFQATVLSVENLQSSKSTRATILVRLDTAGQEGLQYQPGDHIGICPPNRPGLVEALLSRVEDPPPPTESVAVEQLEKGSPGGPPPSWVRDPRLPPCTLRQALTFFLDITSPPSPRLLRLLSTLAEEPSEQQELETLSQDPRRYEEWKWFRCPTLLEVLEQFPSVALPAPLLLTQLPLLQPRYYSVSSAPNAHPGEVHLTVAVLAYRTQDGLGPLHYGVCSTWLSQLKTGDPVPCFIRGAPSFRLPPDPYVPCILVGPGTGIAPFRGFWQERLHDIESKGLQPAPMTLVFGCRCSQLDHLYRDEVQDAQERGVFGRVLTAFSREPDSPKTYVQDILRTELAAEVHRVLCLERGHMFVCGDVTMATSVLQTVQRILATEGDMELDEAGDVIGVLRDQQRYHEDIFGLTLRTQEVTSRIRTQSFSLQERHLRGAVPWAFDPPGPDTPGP

Nitric oxide synthase 1 = Nitric oxide synthase 1 (Rattus norvegicus, UniProt P29476); experiment: Inhibition of rat recombinant nNOS expressed in Escherichia coli assessed as nitric oxide production by hemoglobin capture assay
[2] = Selectivity of rat recombinant nNOS over mouse recombinant iNOS
[3] = Selectivity of rat recombinant nNOS over bovine recombinant eNOS

Nitric oxide synthase 1, sequence (P29476 whole entry): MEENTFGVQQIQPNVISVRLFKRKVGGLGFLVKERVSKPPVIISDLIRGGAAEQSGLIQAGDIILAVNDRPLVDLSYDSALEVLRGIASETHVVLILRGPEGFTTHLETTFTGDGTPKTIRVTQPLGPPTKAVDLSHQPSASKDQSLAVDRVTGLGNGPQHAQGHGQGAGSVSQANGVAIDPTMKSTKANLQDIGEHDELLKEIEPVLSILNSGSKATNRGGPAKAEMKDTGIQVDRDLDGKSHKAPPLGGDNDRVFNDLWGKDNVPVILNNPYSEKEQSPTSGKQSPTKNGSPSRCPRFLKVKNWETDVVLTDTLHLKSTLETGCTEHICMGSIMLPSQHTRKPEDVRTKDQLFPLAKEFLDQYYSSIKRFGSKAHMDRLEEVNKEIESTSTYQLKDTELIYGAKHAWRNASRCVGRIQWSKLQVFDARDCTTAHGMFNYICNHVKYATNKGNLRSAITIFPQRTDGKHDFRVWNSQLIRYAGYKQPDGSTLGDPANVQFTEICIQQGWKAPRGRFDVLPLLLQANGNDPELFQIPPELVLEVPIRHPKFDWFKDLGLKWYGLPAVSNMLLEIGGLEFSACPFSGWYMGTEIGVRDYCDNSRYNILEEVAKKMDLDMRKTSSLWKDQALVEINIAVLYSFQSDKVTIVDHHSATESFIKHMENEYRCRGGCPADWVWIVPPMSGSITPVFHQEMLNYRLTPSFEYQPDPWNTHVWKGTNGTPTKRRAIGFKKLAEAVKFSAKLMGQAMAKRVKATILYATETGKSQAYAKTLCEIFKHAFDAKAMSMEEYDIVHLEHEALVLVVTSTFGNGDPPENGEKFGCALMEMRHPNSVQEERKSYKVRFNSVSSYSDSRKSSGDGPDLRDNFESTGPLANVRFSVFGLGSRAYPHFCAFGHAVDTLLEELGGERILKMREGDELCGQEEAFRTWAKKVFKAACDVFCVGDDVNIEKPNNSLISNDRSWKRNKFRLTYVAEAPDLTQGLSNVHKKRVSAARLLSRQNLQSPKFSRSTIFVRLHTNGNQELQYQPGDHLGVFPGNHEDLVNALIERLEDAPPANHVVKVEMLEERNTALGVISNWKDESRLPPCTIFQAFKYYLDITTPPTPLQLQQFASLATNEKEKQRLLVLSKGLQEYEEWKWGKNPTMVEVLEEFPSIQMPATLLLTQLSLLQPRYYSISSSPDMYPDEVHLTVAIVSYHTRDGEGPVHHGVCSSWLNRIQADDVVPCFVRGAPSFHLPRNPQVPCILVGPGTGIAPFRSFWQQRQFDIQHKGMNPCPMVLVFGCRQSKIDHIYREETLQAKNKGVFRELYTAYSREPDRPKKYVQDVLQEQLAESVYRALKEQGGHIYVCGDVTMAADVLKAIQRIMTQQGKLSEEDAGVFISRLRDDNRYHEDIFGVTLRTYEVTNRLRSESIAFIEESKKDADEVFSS

Row | Compound | Ki [1] [µM] | Ki (Nitric oxide synthase 3) [µM] | Ki (Nitric oxide synthase 1) [µM] | Ratio Ki [2] | Ratio Ki [3]
1 | CN[C@@H](CCCNC(N)=N[N+](=O)[O-])C(=O)N[C@@H]1CCCNC1 | 242 | 174 | 2.26 | – | –
2 | CN[C@@H](CCCNC(N)=N[N+](=O)[O-])C(=O)N[C@@H]1CCNC1 | 124 | 160 | 1.08 | – | –
3 | N=C(NCCC[C@H](N)C(=O)N[C@H]1CCNC1)N[N+](=O)[O-] | – | – | – | 32 | 44
4 | CN[C@@H](CCCNC(=N)N[N+](=O)[O-])C(=O)N[C@H]1CN[C@H](C(N)=O)C1 | 65 | 290 | 1.09 | 60 | 266
5 | N=C(NCCC[C@H](N)C(=O)N[C@@H]1CCCNC1)N[N+](=O)[O-] | – | – | – | 188 | 469
6 | CN[C@@H](CCCNC(=N)N[N+](=O)[O-])C(=O)N[C@@H]1CCCNC1 | – | – | – | 107 | 77
7 | N=C(NCCC[C@H](N)C(=O)N[C@@H]1CCNC1)N[N+](=O)[O-] | – | – | – | 250 | 309
8 | NC(=N[N+](=O)[O-])NCCC[C@H](N)C(=O)N[C@H]1CCNC1 | 57 | 77 | 1.76 | – | –
9 | NC(=N[N+](=O)[O-])NCCC[C@H](N)C(=O)N[C@@H]1CCNC1 | 55 | 68 | 0.22 | – | –
10 | CN[C@@H](CCCNC(=N)N[N+](=O)[O-])C(=O)NC1CCNCC1 | – | – | – | 216 | 48
11 | CN[C@@H](CCCNC(N)=N[N+](=O)[O-])C(=O)NC1CCNCC1 | 515 | 114 | 2.38 | – | –
12 | C[C@H](NC(=O)[C@H](CC(N)=O)NC(=O)[C@@H](N)CC(N)=O)C(=O)O (H-Asn-Asn-Ala-OH) | 4.28 | 0.72 | 0.61 | 7 | 1.2
13 | N=C(NCCC[C@H](N)C(=O)N[C@H]1CCCNC1)N[N+](=O)[O-] | 535 | 221 | 7.62 | 70 | 29
14 | CN[C@@H](CCCNC(=N)N[N+](=O)[O-])C(=O)N[C@@H]1CCNC1 | – | – | – | 115 | 148
15 | NC(=O)[C@@H]1C[C@@H](NC(=O)[C@@H](N)CCC/N=C(\N)N[N+](=O)[O-])CN1 | 17 | – | 0.33 | – | –
16 | N=C(NCCC[C@H](N)C(=O)NC1CCNCC1)N[N+](=O)[O-] | 202 | 262 | 0.47 | 430 | 557
17 | NC(=N[N+](=O)[O-])NCCC[C@H](N)C(=O)N[C@@H]1CCCNC1 | 90 | 225 | 0.48 | – | –
